Data as given in the NIST ThermoML archive (doi:10.1016/j.jct.2016.10.047).

What was measured:
[1] = refractive index (other wavelength) (dimensionless); conditions: 94 kPa, Liquid, Wavelength=632.8 nm, minimum deviation method
[2] = refractive index (other wavelength) (dimensionless); xn = mol fraction of the nth substance listed; conditions: 94 kPa, Liquid, Wavelength=632.8 nm, minimum deviation method, x2 = 0

CCCCCCCC[n+]1ccn(C)c1.F[P-](F)(F)(F)(F)F [1-octyl-3-methylimidazolium hexafluorophosphate]
[1]
Conditions	refractive index
298.19 K	1.4215
300.2 K	1.421
302.19 K	1.4204
304.2 K	1.4199
306.22 K	1.4193
308.24 K	1.4188
310.25 K	1.4183
312.24 K	1.4178

CC(C)O [propan-2-ol]
[1]
Conditions	refractive index
298.21 K	1.3736
300.17 K	1.3728
302.2 K	1.3719
304.24 K	1.371
306.22 K	1.3701
308.22 K	1.3693
310.24 K	1.3684
312.2 K	1.3675

CC(C)O [propan-2-ol] + CCCCCCCC[n+]1ccn(C)c1.F[P-](F)(F)(F)(F)F
[2]
Conditions	refractive index
298.21 K	1.3736
300.17 K	1.3728
302.2 K	1.3719
304.24 K	1.371
306.22 K	1.3701
308.22 K	1.3693
310.24 K	1.3684
312.2 K	1.3675
